Laboratory results taken from patent publication US20240158446A1, “CYCLIC COMPOUND HAVING SELECTIVE INHIBITORY ACTION ON KRAS OVER HRAS AND NRAS” (CHUGAI SEIYAKU KABUSHIKI KAISHA, priority 2021, published 2024).
pKd: −log10 of the molar value. Where a SMILES comes first, the peptide text is derived from it. Bridges are numbered along the chain shown (N, C = ends). [ ]: non-standard residue; d: D form. The star is where a group is joined. hPhe(3-Cl-4-CF3) = N[C@@H](CCc1ccc(C(F)(F)F)c(Cl)c1)C(=O)O; NPrPhe(4-CF3) = CCCN[C@@H](Cc1ccc(C(F)(F)F)cc1)C(=O)O; NMeGly(cPent) = CN[C@H](C(=O)O)C1CCCC1; Pro(4,4-F2) = O=C(O)[C@@H]1CC(F)(F)CN1; Pro(4,4-Me2) = CC1(C)CN[C@H](C(=O)O)C1; Pro(4S-Me) = C[C@@H]1CN[C@H](C(=O)O)C1; Hyp = O=C(O)[C@@H]1C[C@@H](O)CN1; NMeD = CN[C@@H](CC(=O)O)C(=O)O; NMeL = CN[C@@H](CC(C)C)C(=O)O; Morpholide = C1CN(*)CCO1; Ac5c = NC1(C(=O)O)CCCC1; Aze = O=C(O)[C@@H]1CCN1; Ac4c = NC1(C(=O)O)CCC1; NEtG = CCNCC(=O)O; Sar = CNCC(=O)O

Experiments:
[1] = biological target: GDP-bound KRAS wild-type protein (Homo sapiens, UniProt P01116); assay: Binding to KRAS by surface plasmon resonance (SPR), Single Cycle Kinetics; conditions: SPR Single Cycle Kinetics, GDP-bound KRAS wild-type protein, 1:1 binding model; read-out: KRAS KD
[2] = biological target: GDP-bound HRAS wild-type protein (Homo sapiens, UniProt P01112); assay: Binding to HRAS by surface plasmon resonance (SPR), Single Cycle Kinetics; conditions: SPR, GDP-bound HRAS wild-type protein vs GDP-bound KRAS wild-type protein
[3] = biological target: GDP-bound NRAS wild-type protein (Homo sapiens, UniProt P01111); assay: Binding to NRAS by surface plasmon resonance (SPR), Single Cycle Kinetics; conditions: SPR, GDP-bound NRAS wild-type protein vs GDP-bound KRAS wild-type protein
Chain of GDP-bound NRAS wild-type protein (P01111 whole entry): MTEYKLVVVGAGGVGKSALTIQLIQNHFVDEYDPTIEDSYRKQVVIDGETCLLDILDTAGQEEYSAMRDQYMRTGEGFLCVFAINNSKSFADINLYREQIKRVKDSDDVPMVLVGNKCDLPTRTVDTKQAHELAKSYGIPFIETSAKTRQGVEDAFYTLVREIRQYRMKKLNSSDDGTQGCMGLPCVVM

Chain of GDP-bound KRAS wild-type protein (P01116 whole entry): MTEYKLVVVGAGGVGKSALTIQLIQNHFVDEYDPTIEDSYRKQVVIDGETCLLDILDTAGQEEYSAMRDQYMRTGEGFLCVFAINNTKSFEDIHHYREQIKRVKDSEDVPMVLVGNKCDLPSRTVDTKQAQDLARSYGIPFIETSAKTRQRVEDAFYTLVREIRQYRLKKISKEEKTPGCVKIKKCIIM
Chain of GDP-bound HRAS wild-type protein (P01112 whole entry): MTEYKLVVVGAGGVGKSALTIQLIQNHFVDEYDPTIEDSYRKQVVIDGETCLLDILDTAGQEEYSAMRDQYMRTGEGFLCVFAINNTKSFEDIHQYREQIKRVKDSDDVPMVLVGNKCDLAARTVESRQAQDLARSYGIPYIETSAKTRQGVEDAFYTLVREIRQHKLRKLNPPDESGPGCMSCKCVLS

Compound | pKd [1] | HRAS/KRAS (ratio of KD value with respect to HRAS to KD value with respect to KRAS) [2] | NRAS/KRAS (ratio of KD value with respect to NRAS to KD value with respect to KRAS) [3]
CCCN1C(=O)[C@@H]2CCN2C(=O)CN(C)C(=O)[C@H]([C@@H](C)CC)NC(=O)[C@H](CC(C)C)N(C)C(=O)C[C@@H](C(=O)N(C)C)N(C)C(=O)[C@H](C2CCCC2)N(C)C(=O)C2(CCCC2)NC(=O)[C@@H]2CCCN2C(=O)[C@H](CCc2ccc(C(F)(F)F)c(Cl)c2)NC(=O)CN(C)C(=O)[C@@H]1Cc1ccc(C(F)(F)F)cc1 [PP0440] ([NMeL]I[Sar][Aze][NPrPhe(4-CF3)][Sar][hPhe(3-Cl-4-CF3)]P[Ac5c][NMeGly(cPent)][NMeD]-NMe2; lactam N-11) | 10.34 | B (a compound having 3 or more and less than 10 is denoted as B) | C (A compound having a KD ratio of 0.1 or more and less than 3 is denoted as C)
CCCN1C(=O)[C@@H]2CCN2C(=O)CN(C)C(=O)[C@H]([C@@H](C)CC)NC(=O)[C@H](CC(C)C)N(C)C(=O)C[C@@H](C(=O)N(C)C)N(C)C(=O)[C@H](C2CCCC2)N(C)C(=O)C2(CCC2)NC(=O)[C@@H]2CCCN2C(=O)[C@H](CCc2ccc(C(F)(F)F)c(Cl)c2)NC(=O)CN(C)C(=O)[C@@H]1Cc1ccc(C(F)(F)F)cc1 [PP0441] ([NMeL]I[Sar][Aze][NPrPhe(4-CF3)][Sar][hPhe(3-Cl-4-CF3)]P[Ac4c][NMeGly(cPent)][NMeD]-NMe2; lactam N-11) | 10.14 | C (A compound having a KD ratio of 0.1 or more and less than 3 is denoted as C) | C (A compound having a KD ratio of 0.1 or more and less than 3 is denoted as C)
CCCN1C(=O)[C@@H]2CCN2C(=O)CN(C)C(=O)[C@H]([C@@H](C)CC)NC(=O)[C@H](CC(C)C)N(C)C(=O)C[C@@H](C(=O)N(C)C)N(C)C(=O)[C@H](C2CCCC2)N(C)C(=O)C2(CCCC2)NC(=O)[C@@H]2CC(F)(F)CN2C(=O)[C@H](CCc2ccc(C(F)(F)F)c(Cl)c2)NC(=O)CN(C)C(=O)[C@@H]1Cc1ccc(C(F)(F)F)cc1 [PP0442] ([NMeL]I[Sar][Aze][NPrPhe(4-CF3)][Sar][hPhe(3-Cl-4-CF3)][Pro(4,4-F2)][Ac5c][NMeGly(cPent)][NMeD]-NMe2; lactam N-11) | 10.43 | C (A compound having a KD ratio of 0.1 or more and less than 3 is denoted as C) | C (A compound having a KD ratio of 0.1 or more and less than 3 is denoted as C)
CCCN1C(=O)[C@@H]2CCN2C(=O)CN(C)C(=O)[C@H]([C@@H](C)CC)NC(=O)[C@H](CC(C)C)N(C)C(=O)C[C@@H](C(=O)N(C)C)N(C)C(=O)[C@H](C2CCCC2)N(C)C(=O)C2(CCC2)NC(=O)[C@@H]2CC(F)(F)CN2C(=O)[C@H](CCc2ccc(C(F)(F)F)c(Cl)c2)NC(=O)CN(C)C(=O)[C@@H]1Cc1ccc(C(F)(F)F)cc1 [PP0443] ([NMeL]I[Sar][Aze][NPrPhe(4-CF3)][Sar][hPhe(3-Cl-4-CF3)][Pro(4,4-F2)][Ac4c][NMeGly(cPent)][NMeD]-NMe2; lactam N-11) | 10.57 | C (A compound having a KD ratio of 0.1 or more and less than 3 is denoted as C) | C (A compound having a KD ratio of 0.1 or more and less than 3 is denoted as C)
CCCN1C(=O)[C@@H]2CCN2C(=O)CN(C)C(=O)[C@H]([C@@H](C)CC)NC(=O)[C@H](CC(C)C)N(C)C(=O)C[C@@H](C(=O)N(C)C)N(C)C(=O)[C@H](C2CCCC2)N(C)C(=O)C2(CCCC2)NC(=O)[C@@H]2C[C@@H](OCC)CN2C(=O)[C@H](CCc2ccc(C(F)(F)F)c(Cl)c2)NC(=O)CN(C)C(=O)[C@@H]1Cc1ccc(C(F)(F)F)cc1 [PP0444] ([NMeL]I[Sar][Aze][NPrPhe(4-CF3)][Sar][hPhe(3-Cl-4-CF3)][Hyp](Et)[Ac5c][NMeGly(cPent)][NMeD]-NMe2; lactam N-11) | 10.51 | C (A compound having a KD ratio of 0.1 or more and less than 3 is denoted as C) | C (A compound having a KD ratio of 0.1 or more and less than 3 is denoted as C)
CCCN1C(=O)[C@@H]2CCN2C(=O)CN(C)C(=O)[C@H]([C@@H](C)CC)NC(=O)[C@H](CC(C)C)N(C)C(=O)C[C@@H](C(=O)N(C)C)N(C)C(=O)[C@H](C2CCCC2)N(C)C(=O)C2(CCC2)NC(=O)[C@@H]2C[C@@H](OCC)CN2C(=O)[C@H](CCc2ccc(C(F)(F)F)c(Cl)c2)NC(=O)CN(C)C(=O)[C@@H]1Cc1ccc(C(F)(F)F)cc1 [PP0445] ([NMeL]I[Sar][Aze][NPrPhe(4-CF3)][Sar][hPhe(3-Cl-4-CF3)][Hyp](Et)[Ac4c][NMeGly(cPent)][NMeD]-NMe2; lactam N-11) | 10.60 | C (A compound having a KD ratio of 0.1 or more and less than 3 is denoted as C) | C (A compound having a KD ratio of 0.1 or more and less than 3 is denoted as C)
CCCN1C(=O)CN(C)C(=O)CN(C)C(=O)[C@H]([C@@H](C)CC)NC(=O)[C@H](CC(C)C)N(C)C(=O)C[C@@H](C(=O)N2CCOCC2)N(C)C(=O)[C@H](C2CCCC2)N(C)C(=O)C2(CCCC2)NC(=O)[C@@H]2CC(C)(C)CN2C(=O)[C@H](CCc2ccc(C(F)(F)F)c(Cl)c2)NC(=O)CN(C)C(=O)[C@@H]1Cc1ccc(C(F)(F)F)cc1 [PP0446] ([NMeL]I[Sar][Sar][NPrPhe(4-CF3)][Sar][hPhe(3-Cl-4-CF3)][Pro(4,4-Me2)][Ac5c][NMeGly(cPent)][NMeD]-Morpholide; lactam N-11) | 10.00 | C (A compound having a KD ratio of 0.1 or more and less than 3 is denoted as C) | B (a compound having 3 or more and less than 10 is denoted as B)
CCCN1C(=O)CN(C)C(=O)CN(C)C(=O)[C@H]([C@@H](C)CC)NC(=O)[C@H](CC(C)C)N(C)C(=O)C[C@@H](C(=O)N2CCOCC2)N(C)C(=O)[C@H](C2CCCC2)N(C)C(=O)C2(CCCC2)NC(=O)[C@@H]2C[C@H](C)CN2C(=O)[C@H](CCc2ccc(C(F)(F)F)c(Cl)c2)NC(=O)CN(C)C(=O)[C@@H]1Cc1ccc(C(F)(F)F)cc1 [PP0447] ([NMeL]I[Sar][Sar][NPrPhe(4-CF3)][Sar][hPhe(3-Cl-4-CF3)][Pro(4S-Me)][Ac5c][NMeGly(cPent)][NMeD]-Morpholide; lactam N-11) | 9.74 | C (A compound having a KD ratio of 0.1 or more and less than 3 is denoted as C) | B (a compound having 3 or more and less than 10 is denoted as B)
CCCN1C(=O)CN(C)C(=O)CNC(=O)[C@H]([C@@H](C)CC)NC(=O)[C@H](CC(C)C)N(C)C(=O)C[C@@H](C(=O)N2CCOCC2)N(C)C(=O)[C@H](C2CCCC2)N(C)C(=O)C2(CCCC2)NC(=O)[C@@H]2CC(C)(C)CN2C(=O)[C@H](CCc2ccc(C(F)(F)F)c(Cl)c2)NC(=O)CN(C)C(=O)[C@@H]1Cc1ccc(C(F)(F)F)cc1 [PP0448] ([NMeL]IG[Sar][NPrPhe(4-CF3)][Sar][hPhe(3-Cl-4-CF3)][Pro(4,4-Me2)][Ac5c][NMeGly(cPent)][NMeD]-Morpholide; lactam N-11) | 9.82 | C (A compound having a KD ratio of 0.1 or more and less than 3 is denoted as C) | B (a compound having 3 or more and less than 10 is denoted as B)
CCCN1C(=O)CN(C)C(=O)CNC(=O)[C@H]([C@@H](C)CC)NC(=O)[C@H](CC(C)C)N(C)C(=O)C[C@@H](C(=O)N2CCOCC2)N(C)C(=O)[C@H](C2CCCC2)N(C)C(=O)C2(CCCC2)NC(=O)[C@@H]2C[C@H](C)CN2C(=O)[C@H](CCc2ccc(C(F)(F)F)c(Cl)c2)NC(=O)CN(C)C(=O)[C@@H]1Cc1ccc(C(F)(F)F)cc1 [PP0449] ([NMeL]IG[Sar][NPrPhe(4-CF3)][Sar][hPhe(3-Cl-4-CF3)][Pro(4S-Me)][Ac5c][NMeGly(cPent)][NMeD]-Morpholide; lactam N-11) | 9.46 | C (A compound having a KD ratio of 0.1 or more and less than 3 is denoted as C) | C (A compound having a KD ratio of 0.1 or more and less than 3 is denoted as C)
CCCN1C(=O)CN(C)C(=O)CN(CC)C(=O)[C@H]([C@@H](C)CC)NC(=O)[C@H](CC(C)C)N(C)C(=O)C[C@@H](C(=O)N2CCOCC2)N(C)C(=O)[C@H](C2CCCC2)N(C)C(=O)C2(CCCC2)NC(=O)[C@@H]2CC(C)(C)CN2C(=O)[C@H](CCc2ccc(C(F)(F)F)c(Cl)c2)NC(=O)CN(C)C(=O)[C@@H]1Cc1ccc(C(F)(F)F)cc1 [PP0450] ([NMeL]I[NEtG][Sar][NPrPhe(4-CF3)][Sar][hPhe(3-Cl-4-CF3)][Pro(4,4-Me2)][Ac5c][NMeGly(cPent)][NMeD]-Morpholide; lactam N-11) | 9.42 | C (A compound having a KD ratio of 0.1 or more and less than 3 is denoted as C) | B (a compound having 3 or more and less than 10 is denoted as B)
